Test system: HCC1937 (breast cancer) cells
Assay: Cell Viability Assay, HCC1937
Format: cell-based
Conditions: Homo sapiens, 72 hours
Experimental: The purpose of this assay is to measure the ability of a compound to reduce viability of different cancer cells dependent on the NAMPT-mediated NAD^+ formation in vitro. HCC1937 (breast cancer) cells are cultured in RPMI-1640 supplemented with 10% FBS. Calu-6 (lung cancer) cells and MCF-7 (breast cancer) cells are cultured in Minimum Essential Medium (MEM) (Gibco11095) supplemented with 1 mM sodium pyruvate (Gibco 11360), 1% Non-Essential Amino Acids Solution (100×; Gibco 11140) and 10% FBS. NCI-H1155 (lung cancer) cells are cultured in Dulbecco's Modified Eagle Medium (DMEM) (Gibco 11965) with 10% FBS. […] Cell viability is analyzed by using an assay kit (CYTOTOX-GLO™ Cytotoxicity Assay kit, Promega) according to the manufacturer's instructions as follows. […] Luminescence is measured using a Wallac Victor3 V 1420 Multilabel Counter (Perkin Elmer), referred to as dead cell luminescence. […] After the plate is incubated at room temperature for 15 minutes, luminescence is measured using the plate reader, referred to as total luminescence. Viable cell luminescence (CPS) is calculated by subtracting the dead cell luminescence from the total luminescence Inhibition of cell viability is calculated based on the equation as follows:
Inhibition (%)=(CPSnegative−CPSsample)/(CPSnegative−CPSpositive)*100 where CPS is the luminescence of viable cells.

IC50 [µM]	SMILES
0.333 ± 0.032	CC(C)(O)CS(=O)(=O)Nc1ccc2c(c1)CCN(C(=O)COc1cccnc1)C2 [Example 1, 2-Hydroxy-2-methyl-N-[2-[2-(3-pyridyloxy)acetyl]-3,4-dihydro-1H-isoquinolin-6-yl]propane-1-sulfonamide]
1.04 ± 0.664	COCCS(=O)(=O)Nc1ccc2c(c1)CCN(C(=O)COc1cccnc1)C2 [Example 2, 2-Methoxy-N-[2-[2-(3-pyridyloxy)acetyl]-3,4-dihydro-1H-isoquinolin-6-yl]ethanesulfonamide]

From patent US20160229835A1, “NOVEL PYRIDYLOXYACETYL TETRAHYDROISOQUINOLINE COMPOUNDS USEFUL AS NAMPT INHIBITORS” (ELI LILLY AND COMPANY, priority 2013, published 2016)
